Here are results for 5 compounds from patent US9441237B2, “Auxin receptors” (THE GOVERNORS OF THE UNIVERSITY OF ALBERTA, priority 2010, dated 2016).

For test [1], the system named is deseeded pea pericarps. In words: Deseeded pea pericarp growth / fruit abortion after hormone application (split-pericarp). It is filed as in vivo, Pisum sativum. The note with it: hormone applied to deseeded ovaries.
For test [2], the system named is deseeded pea pericarps. Particulars: hormone applied to deseeded pericarps, split-pericarp assay; literature (Reinecke et al. 1995, 1999; Ozga and Reinecke 1999; Johnstone et al. 2005); cited from earlier work.
For test [3], the system named is PsAFB2 transcript abundance in pericarp. In words: Pea split-pericarp assay, hormone applied to deseeded pericarps, PsAFB2 transcript abundance by qRT-PCR. Particulars: deseeded 2 DAA pericarps, 50 μM hormone applied 12 h after deseeding, 2, 8 and 12 h after application. Format: in vivo, Pisum sativum. How it is done:
(§1) To examine the hormonal regulation of pericarp AFB mRNA levels, the pea split-pericarp assay was used (Ozga et al., 1992). Fruit at 2 DAA were split along the dorsal suture. Seeds were removed and pericarps were left for 12 hours prior to hormone application to reduce residual seed effects. […] For split-pod, no seed controls (SPNS), 30 μL of 0.1% aqueous Tween 80 was applied. For split-pod controls (SP), seeds were not removed after the dorsal suture was opened, but 30 μL of 0.1% aqueous Tween 80 was applied 12 hours after pericarp splitting. As a further control for the split-pericarp procedure, intact pods were also harvested at the appropriate times. All fruit subjected to split-pericarp treatments were covered with plastic to maintain humidity, and all manipulations were carried out while pericarps remained on the plant. Intact controls were harvested at the 0 hour and 12 hour treatment timing, while all split-pericarp treatments were harvested at 12, 14, 20, and 24 hours after pericarp splitting (0, 2, 8, and 12 hours after hormone treatment).
All transcript quantification was performed on a StepOnePlus sequence detector (Applied Biosystems). Reverse transcription and quantification was performed using TaqMan One-Step RT-PCR Master Mix (Applied Biosystems; final concentration 1×) and 200 ng of DNAse treated total RNA (final concentration 8 ng μL^−1) in duplicate in a final volume of 25 μL per well. The final concentration of forward and reverse primers was 300 nM each, and the final concentration of probe was 100 nM. Reverse transcription was carried out for 30 minutes at 48° C. […] Quantification was carried out for 40 cycles of the following program: denaturation at 95° C. for 15 seconds, primer annealing and extension at 60° C. for 1 minute. […]
(§2) Relative transcript levels were calculated using the ΔCt method (Livak and Schmittgen, 2001) using the following formula, where X is an arbitrary value equal to or greater than the highest assayed Ct value and E is the reaction efficiency for the amplicon in question: Transcript abundance=(1+E)^X−Ct) (1)

Test [4] concerns PsAFB6 transcript abundance in pericarp. The test is described as follows: Pea split-pericarp assay, hormone applied to deseeded pericarps, PsAFB6 transcript abundance by qRT-PCR. Format: in vivo, Pisum sativum. The note with it: deseeded 2 DAA pericarps, 50 μM hormone. As for the experimental part:
as §1
All transcript quantification was performed on a StepOnePlus sequence detector (Applied Biosystems). Reverse transcription and quantification was performed using TaqMan One-Step RT-PCR Master Mix (Applied Biosystems; final concentration 1×) and 200 ng of DNAse treated total RNA (final concentration 8 ng μL^−1) in duplicate in a final volume of 25 μL per well. The final concentration of forward and reverse primers was 300 nM each, and the final concentration of probe was 100 nM. Reverse transcription was carried out for 30 minutes at 48° C. DNA polymerase antibody was denatured at 95° C. for 10 minutes. Quantification was carried out for 40 cycles of the following program: denaturation at 95° C. for 15 seconds, primer annealing and extension at 60° C. for 1 minute. Probes were labelled at the 5′ end with FAM (6-carboxyfluorescein) and at the 3′ end with the MGB quencher (Applied Biosystems).
as §2

[5] abbreviates: throughout the time course (2 to 12 h after application).

Take `O=C(O)Cc1c[nH]c2cccc(Cl)c12` [4-Cl-IAA, 4-chloroindole-3-acetic acid]: the “abortion of deseeded fruits” value with deseeded pea pericarps [1] is “prevention of fruit abortion”. The deseeded pericarp growth result in the test with deseeded pea pericarps [2] is “stimulated pericarp growth”. Moreover, the “effect on steady-state PsAFB2 transcript abundance” value in test [3] was “did not significantly affect”. In addition, the “effect on pericarp PsAFB6 mRNA abundance” value in test [4] (2 hours after application) is recorded as “initially reduced”; in test [4] (setting [5]), “reduced PsAFB6 mRNA abundance to levels similar to those found in SP controls”.
Regarding `Cc1cccc2[nH]cc(CC(=O)O)c12` [4-Me-IAA], in the test with deseeded pea pericarps [2], the deseeded pericarp growth entry is listed as “capable of stimulating the expansion of deseeded pericarps, but not to the same extent as 4-Cl-IAA”.
Take `C=C1C[C@]23C[C@@]1(O)CC[C@H]2[C@@]12CC[C@H](O)[C@@](C)(C(=O)O1)[C@H]2[C@@H]3C(=O)O` [GA1]: in the test on deseeded pea pericarps [2], the deseeded pericarp growth entry was “stimulate deseeded pericarp growth”.
Consider `C=C1C[C@]23C[C@@]1(O)CC[C@H]2[C@@]12C=C[C@H](O)[C@@](C)(C(=O)O1)[C@H]2[C@@H]3C(=O)O` [GA3], for which the deseeded pericarp growth entry in the test with deseeded pea pericarps [2] is recorded as “stimulate deseeded pericarp growth”. In test [3], the “effect on steady-state PsAFB2 transcript abundance” value is “did not significantly affect”. In addition, the “effect on pericarp PsAFB6 mRNA abundance” value in test [4] (setting [5]) is listed as “no effect”.
As to `O=C(O)Cc1c[nH]c2ccccc12` [IAA, indole-3-acetic acid], in the test with deseeded pea pericarps [1], the “abortion of deseeded fruits” value is “nor does it prevent the abortion of deseeded fruits”. For the same compound, the deseeded pericarp growth result in the test with deseeded pea pericarps [2] is “further decreases growth”. Besides, the “effect on steady-state PsAFB2 transcript abundance” value in test [3] was “did not significantly affect”. For the same compound, the “effect on pericarp PsAFB6 mRNA abundance” value in test [4] (8 hours to 12 hours after application) was “increased to that observed in the SPNS pericarps”.
